Data: patent publication US20140323349A1, “COMPOSITIONS AND METHODS FOR MONITORING AND DETECTING CANCEROUS CONDITIONS” (PHIGENIX, INC., priority 2011, published 2014)
Entries after “also recorded” stand apart in the source; their conditions may differ. Each block holds one molecule with its values, some of them ahead of it.

Assays:
Format in all cases: cell-based, human
[1] = test system: phospho-PAX2; test: Western blot of phospho-PAX2; settings: DU145
Procedure: (§1) Western blot analysis was performed as described in Example 2. […] After washing, the membranes were incubated with anti-rabbit antibody conjugated to horseradish peroxidase (HRP) (dilution 1:5000; Sigma), and signal detection was visualized using chemilluminescence reagents (Pierce) on an Alpha Innotech Fluorchem 8900. As a control, blots were stripped and re-probed with mouse anti-β-actin primary antibody (1:5000; Sigma-Aldrich) and HRP-conjugated anti-mouse secondary antibody (1:5000; Sigma-Aldrich), and signal detection was again visualized.

[2] = test system: PAX2 protein; test: Western blot analysis of PAX2 protein; settings: DU145; 5 uM Los, 25 uM U0126, 20 uM PD98059, 250 μM AICAR
Procedure: Briefly, cells were harvested by trypsinization and washed twice with PBS. Lysis buffer was prepared according to the manufacturer's instructions (Sigma), and was then added to the cells. Following a 15 minute incubation period at 4° C. on an orbital shaker, cell lysate were then collected and centrifuged for 10 minutes at 12000×g to pellet cellular debris. The protein-containing supernatant were then collected and quantitated. Next, 25 μg protein extract was loaded onto an 8-16% gradient SDS-PAGE (Novex). Following electrophoresis, proteins were transferred to PVDF membranes, and then blocked with 5% nonfat dry milk in TTBS (0.05% Tween 20 and 100 mM Tris-C1) for 1 hour. Blots were then probed with rabbit anti-PAX2 primary antibody (Zymed, San Francisco, Calif.) at a 1:2000 dilution. After washing, the membranes were incubated with anti-rabbit antibody conjugated to horseradish peroxidase (HRP) (dilution 1:5000; Sigma), and signal detection was visualized using chemilluminescence reagents (Pierce) on an Alpha Innotech Fluorchem 8900. As a control, blots were stripped and reprobed with mouse anti-β-actin primary antibody (1:5000; Sigma-Aldrich) and HRP-conjugated anti-mouse secondary antibody (1:5000; Sigma-Aldrich) and signal detection was again visualized.
Western blot analysis was performed as described in Example 2. Blots were then probed with primary antibody (anti-PAX2, -phospho-PAX2, -JNK, -phospho-JNK, -ERK1/2, or -phospho-ERK1/2) (Zymed, San Francisco, Calif.) at 1:1000-2000 dilutions. After washing, the membranes were incubated with anti-rabbit antibody conjugated to horseradish peroxidase (HRP) (dilution 1:5000; Sigma), and signal detection was visualized using chemilluminescence reagents (Pierce) on an Alpha Innotech Fluorchem 8900. As a control, blots were stripped and re-probed with mouse anti-β-actin primary antibody (1:5000; Sigma-Aldrich) and HRP-conjugated anti-mouse secondary antibody (1:5000; Sigma-Aldrich), and signal detection was again visualized.

[3] = test system: phospho-STAT3; test: Western blot of phospho-STAT3; settings: DU145
Procedure: as §1

[4] = test system: PAX2; test: PAX2 expression after treatment with AngII or receptor blockers; settings: for reduction of PAX2 expression: versus untreated control
Procedure: Western blot analysis was performed as described in Example 2. […] After washing, the membranes were incubated with anti-rabbit antibody conjugated to horseradish peroxidase (HRP) (dilution 1:5000; Sigma), and signal detection was visualized using chemilluminescence reagents (Pierce) on an Alpha Innotech Fluorchem 8900. As a control, blots were stripped and re-probed with mouse anti-β-actin primary antibody (1:5000; Sigma-Aldrich) and HRP-conjugated anti-mouse secondary antibody (1:5000; Sigma-Aldrich), and signal detection was again visualized. Quantitative real-time RT-PCR was performed as described in Example 1 to verify changes in gene expression following PAX2 knockdown in PC3 and DU145 prostate cancer cell lines and the hPrEC normal prostate epithelial cells. Forty cycles of PCR were performed under standard conditions using an annealing temperature of 60° C. Quantification was determined by the cycle number where exponential amplification began (threshold value) and averaged from the values obtained from the triplicate repeats. There was an inverse relationship between message level and threshold value. In addition, GAPDH was used as a housekeeping gene to normalize the initial content of total cDNA. Relative expression was calculated as the ratio between each genes and GAPDH. All reactions were carried out in triplicate.

[5] = test system: phospho-JNK; test: Western blot of phospho-JNK; settings: DU145
Procedure: as §1

[6] = test system: DEFB1; test: QRT-PCR of DEFB1 (hBD-1) expression; settings: 10 μM
Procedure: Briefly, total RNA was isolated using the SV Total RNA Isolation System (Promega, Madison, Wis.) from approximately 1×10^6 cells harvested by trypsinizing. Cells were lysed and total RNA was isolated by centrifugation through spin columns. For cells collected by LCM, total RNA was isolated using the PicoPure RNA Isolation Kit (Arcturus Biosciences, Mt. View, Calif.) following the manufacturer's protocol. Total RNA (0.5 μg per reaction) from both sources was reverse transcribed into cDNA utilizing random primers (Promega). AMV Reverse Transcriptase II enzyme (500 units per reaction; Promega) was used for first strand synthesis and Tfl DNA Polymerase for second strand synthesis (500 units per reaction; Promega) as per the manufacturer's protocol. In each case, 50 pg of cDNA was used per ensuing PCR reaction. Two-step QRT-PCR was performed on cDNA generated using the MultiScribe Reverse Transcripatase from the TaqMan Reverse Transcription System and the SYBR® Green PCR Master Mix (Applied Biosystems).
Forty cycles of PCR were performed under standard conditions using an annealing temperature of 56° C. In addition, β-actin (Table 2) was amplified as a housekeeping gene to normalize the initial content of total cDNA. […]
Quantitative real-time RT-PCR was performed as described in Example 1 to verify changes in gene expression following PAX2 knockdown in PC3 and DU145 prostate cancer cell lines and the hPrEC normal prostate epithelial cells. […] Quantification was determined by the cycle number where exponential amplification began (threshold value) and averaged from the values obtained from the triplicate repeats. […] Relative expression was calculated as the ratio between each genes and GAPDH. […]
QRT-PCR was performed as previously described (Gibson et al., 2007). […] Gene expression in benign prostate tissue samples was calculated as the expression ratio compared to β-actin. Levels of hBD-1 expression in malignant prostate tissue, hPREC prostate primary culture, and prostate cancer cell lines before and after induction were calculated relative to the average level of hBD-1 expression in hPrEC cells. […]

[7] = test system: DU145 cells; test: [3H]thymidine incorporation proliferation assay
Procedure: Proliferation of cells was determined by [^3H] thymidine ribotide ([3H]TdR) incorporation into DNA. 0.5×10^6 cells/well of suspension DU145 cells were plated in their appropriate media. Cells were incubated for 72 h with or without the presence of AngII at the indicated concentrations. Cells were exposed to 37 kBq/ml [methyl-3H]thymidine in the same medium for 6 h. The adherent cells were fixed by 5% trichloroacetic acid and lysed in SDS/NaOH lysis buffer overnight. Radioactivity was measured by Beckman LS3801 liquid scintillation counter (Canada). Suspension cell cultures were harvested by cell harvester (Packard Instrument Co., Meriden, Conn.), and radioactivity was measured by 1450 microβ liquid scintillation counter (PerkinElmer Life Sciences).

[8] = test system: ERK; test: Western blot of ERK; settings: DU145
Procedure: as §1

[9] = test system: phospho-ERK 1/2; test: Western blot of phospho-ERK 1/2; settings: DU145
Procedure: as §1

Molecule: COc1cccc(-c2cc(=O)c3ccccc3o2)c1N [PD98059]
phospho-PAX2 protein levels [1]: significant decrease or suppression of phospho-PAX2 protein levels; also recorded: suppress phospho-PAX2 protein expression levels | PAX2 expression / protein levels [2]: decreased PAX2; also recorded: suppress PAX2 protein levels | phospho-STAT3 protein levels [3]: reduced phospho-STAT3 protein levels; also recorded: suppress phospho-STAT3 protein levels

increase in PAX2 expression ([4]; DU145, 48 hours): 7 fold | increase in PAX2 expression ([4]; DU145, 96 hours): 8 fold
Molecule: Cc1cc(Cn2cnc3c2C[C@@H](C(=O)O)N(C(=O)C(c2ccccc2)c2ccccc2)C3)ccc1N(C)C [PD123319]

Molecule: NC(=O)c1ncn([C@@H]2O[C@H](CO)[C@@H](O)[C@H]2O)c1N [AICAR, 5-Aminoimidazole-4-carboxamide-1-β-4-ribofuranoside]
phospho-PAX2 protein levels [1]: suppression; also recorded: suppress phospho-PAX2 protein expression levels | PAX2 expression / protein levels [2]: suppression of PAX2 pression expression; also recorded: suppress PAX2 protein levels | phospho-STAT3 protein levels [3]: suppressed; also recorded: suppress phospho-STAT3 protein levels

Molecule: N#CC(=C(/N)Sc1ccccc1N)/C(C#N)=C(\N)Sc1ccccc1N [Drug U0126, U0126]
phospho-PAX2 protein levels [1]: significant decrease or suppression of phospho-PAX2 protein levels; also recorded: suppress phospho-PAX2 protein expression levels | phospho-JNK protein levels [5]: did not decrease phospho-JNK protein levels; also recorded: failed to decrease phospho-JNK protein levels | PAX2 expression / protein levels [2]: significant reduction of PAX2 expression; also recorded: suppress PAX2 protein levels | phospho-STAT3 protein levels [3]: reduced phospho-STAT3 protein levels; also recorded: suppress phospho-STAT3 protein levels

PAX2 expression ([4]; DU145, 30 min to 48 hour AngII treatment): progressively increased over time
Molecule: Angiotensin II (DRVYIHPF) [AngII]
decrease in DEFB1 expression relative to untreated hPrEC cells ([6]; 72 hours): 35% | decrease in DEFB1 expression relative to untreated hPrEC cells ([6]; 96 hours): 50% | increase in DEFB1 relative to untreated hPrEC cells ([6]; 96 hours): 79% | increase in PAX2 expression relative to untreated hPrEC cells ([4]; hPrEC, 10 μM, 72 hours): 66% | PAX2 expression in hPrEC as % of PAX2 levels in PC3 cells ([4]; hPrEC, 72 hours): 77% | PAX2 expression in hPrEC as % of PAX2 expression in PC3 cells ([4]; hPrEC, 96 hours): 89% | proliferation rate ([7]; DU145, AngII treatment): two- to three-fold increase; also recorded: increases DU145 cell proliferation

Molecule: CCCCc1nc(Cl)c(CO)n1Cc1ccc(-c2ccccc2-c2nn[nH]n2)cc1 [Los, Losartan]
phospho-PAX2 protein levels [1]: significant decrease or suppression of phospho-PAX2 protein levels; also recorded: suppress phospho-PAX2 protein expression levels | ERK protein levels [8]: no effect on ERK protein levels | phospho-JNK protein levels [5]: did not decrease phospho-JNK protein levels; also recorded: failed to decrease phospho-JNK protein levels | PAX2 expression / protein levels [2]: significant reduction of PAX2 expression; also recorded: suppress PAX2 protein levels | phospho-ERK [9]: reduced the amount of phospho-ERK; also recorded: suppresses phospho-ERK 1/2 and PAX2 protein levels | phospho-STAT3 protein levels [3]: reduced phospho-STAT3 protein levels; also recorded: suppress phospho-STAT3 protein levels | effect on AngII effect on PAX2 expression ([4]; DU145): blocks the effect of Angiotensin II (AngII) effect on PAX2 expression | reduction of PAX2 expression ([4]; DU145, 48 hours): 37% | reduction of PAX2 expression ([4]; DU145, 72 hours): 50% | decrease in proliferation rate ([7]; DU145): 50% | effect on AngII-induced proliferation ([7]; DU145, pre-treating for 30 min): suppressed the effect of AngII on proliferation
